# Values quoted from earlier work as cited in patent US4294824A, “Extracts of the hemopoietic system” (priority 1975, dated 1981).
# Conditions: lists continue in the following blocks
row,Structure (SMILES),SOME SIDE EFFECTS AND MAJOR TOXICITY
1,"CC[C@]1(O)C[C@H]2CN(CCc3c([nH]c4ccccc34)[C@@](C(=O)OC)(c3cc4c(cc3OC)N(C=O)[C@H]3[C@@](O)(C(=O)OC)[C@H](OC(C)=O)[C@]5(CC)C=CCN6CC[C@]43[C@@H]65)C2)C1 [VINCRISTINE, vincristine]","Peripheral neuropathy, adynamic ileus, myopathy"
2,"COc1cccc2c1C(=O)c1c(O)c3c(c(O)c1C2=O)C[C@@](O)(C(C)=O)C[C@@H]3O[C@H]1C[C@H](N)[C@H](O)[C@H](C)O1 [DAUNORUBICIN, daunorubicin]","Myelosuppression, leucopenia, anaemia"
3,"CN(Cc1cnc2nc(N)nc(N)c2n1)c1ccc(C(=O)N[C@@H](CCC(=O)O)C(=O)O)cc1 [METHOTREXATE, methotrexate]","Myelosuppression, bone marrow depression, leucopenia"
4,"O=P1(N(CCCl)CCCl)NCCCO1 (centres unmarked) [CYCLOPHOSPHAMIDE, cyclophosphamide]","Leucopenia, anorexia, nausea, vomiting. diarrhoea"
5,"Nc1ccn([C@@H]2O[C@H](CO)[C@@H](O)[C@@H]2O)c(=O)n1 [CYTOSINE ARABINOSIDE, cystosine arabinoside]","Myelosuppression, bone marrow depression, nausea"
